Entries after “also recorded” stand apart in the source; their conditions may differ.
Columns and labels:
[1] = tested on: HeLa cells; test: Flow cytometry (FACS) DNA content / cell cycle profile; assay type: cell-based, human; settings: 24 h; for % of cells 2<n<4 / % of cells 2n / % of cells 4n / % of cells <2n / % of cells >4n: HeLa cells; for effect on DNA content / distribution of cells in the cell cycle stages: ZM1 2 µM, (A) and (C) increasing concentrations
Procedure: Adherent HeLa cells were routinely passaged and maintained in D-MEM medium supplemented with 10% Fetal Bovine Serum (FBS), 1% Penicillin/Streptomycin and 2 mM L-Glutamine. The cells were cultured at 37 °C; 5% CO2. hTERT-RPE1 cells were grown in DMEM with 10% fetal bovine serum. HeLa cells constitutively expressing green fluorescent protein-conjugated Histone H2B and mRed fluorescent protein-conjugated α-tubulin were maintained in D-MEM medium supplemented with 10% Fetal Bovine Serum (FBS), 1% Penicillin/Streptomycin, 2 mM L-Glutamine and 0.5 µg/mL Puromycin and cultured at 37 °C; 5% CO2.
After treatment, FACS analysis was performed on a BD FACSCanto™ Flow Cytometer (Cat.No. 335860 BD Biosciences) using FACSDiva Software. Cells were trypsinized, washed wish PBS and fixed overnight in EtOH (-20°C). After washing with PBS, cells were stained with a propidium iodide solution (PI; 15 µg/mL)/ RNase A (30 µg/mL) for 30 min at 37 °C. RNase was added to avoid signals caused by the binding of PI to RNA.
We first examined by flow cytometry the cell cycle profiles of HeLa cells incubated in medium containing increasing concentrations of any of (A) or (C) for 24 h.

[2] = tested on: FGFR; test: RTK-Assay (ELISA, chemiluminescence); assay type: biochemical
Procedure: To determine the IC50 of receptor-tyrosine-kinase an assay based on the ELISA-principle using kinases from Biomol (N-terminally fused to GST), POD-coupled antibody from Calbiochem (PY20) and BM chemiluminescence ELISA substrate from Roche was followed.
In short, a white 96 wells microplate was incubated overnight with 100 µl/well of the substrate solution (poly-Glu-Tyr diluted with PBS to 100 µg/ml) at 4 °C. The solution was removed and the plate was washed twice for 2 min with PBS-T. Afterwards the kinase solution (50 µl/well)( KDR (VEGFR2), 5 ng; Flt4 (VEGFR3), 20 ng; EGFR, 5 ng; IGFR, 15 ng; FGFR, 10 ng and Tie2, 20 ng) and the inhibitor solution (25 µl/well) were added to each well. To perform positive and negative control, 5% aqueous DMSO (25 µl/well) were used instead of inhibitor solution. Addition of ATP solution (25 µl/well) started the reaction, whereas 40 mM MnCl2 solution (25 µl/well) was added to the negative control instead of ATP. After incubation under mild shaking conditions for 30 min at rt the plate was washed with PBS-T (3 x 2 min) and subsequently incubated with antibody solution (anti-Phosphotyrosine-antibody (POD-coupled) diluted 1:10.000 in PBS-T + 0,2% (m/v) BSA)(100 µl/well) for 1 h again while shaking. In the end the plate was washed with PBS-T (3x5 min) and provided with the chemiluminescence substrate (50 µl/well). After 3 min the occurring luminescence was measured using a luminometer. […] For determination of IC50 values, the relative luminescence units per second (RLU/s) were blotted against the inhibitor concentrations. In doing so each concentration measurement was done triplicate and at least 5 different inhibitor concentrations were used to determine IC50 value.
This assay is based on the ELISA-principle using kinases from Biomol (N-terminally fused to GST), POD-coupled antibody from Calbiochem (PY20) and BM chemiluminescence ELISA substrate from Roche. […]
For determination of IC50 values, the relative luminescence units per second (RLU/s) were blotted against the inhibitor concentrations. […]

[3] = target: T1, Aurora B (Homo sapiens, UniProt Q96GD4); test: In vitro Aurora B kinase assay (Invitrogen Z'-lyte kinase assay kit, Ser/Thr 1 peptide); assay type: biochemical; settings: 64 µM ATP
T1 construct: purchased Invitrogen PV3970
Procedure: The IC50 for the different compounds was determined with Invitrogen Z'-Iyte kinase assay kit Ser/Thr 1 peptide PV3174 following the manufacturer's instructions. […] This amount was then used in subsequent assay steps.
Compounds were prepared in 384-well plates (Greiner 384-well PP 781280) at a highest concentration of 400 µM (in 4% DMSO) and then serially diluted in 2-fold steps by hand, keeping the DMSO percentage constant. 1.25 µl of compound solution was subsequently transferred 1:1 to a 384-well assay plate (Greiner 384-well ProxiPlate Plus F 6008260) for screening at a highest concentration in the final assay of 100 µM (in 1% DMSO).
In the first step, 2.5 µl of a solution containing 8 nM Aurora A (batch S74, prepared in-house at EMBL) or 40 nM Aurora B (Invitrogen PV3970) and 4 µM Ser/Thr peptide 1 (Invitrogen PV3174) was added to each well, followed by 1.25 µl of the respective ATP solution (40 µM for Aurora A, 256 µM for Aurora B). […] In the final step, the reaction in each well was stopped by the addition of 2.5 µl Stop reagent, followed by a brief centrifugation step and immediate readout (PerkinElmer EnVision HTS; ex. 405 nm, coumarin em. 450 nm, fluorescein em. 535 nm).
Percentage phosphorylation was calculated using 0% and 100% phosphorylation controls. […]

T1 sequence (Q96GD4 whole entry): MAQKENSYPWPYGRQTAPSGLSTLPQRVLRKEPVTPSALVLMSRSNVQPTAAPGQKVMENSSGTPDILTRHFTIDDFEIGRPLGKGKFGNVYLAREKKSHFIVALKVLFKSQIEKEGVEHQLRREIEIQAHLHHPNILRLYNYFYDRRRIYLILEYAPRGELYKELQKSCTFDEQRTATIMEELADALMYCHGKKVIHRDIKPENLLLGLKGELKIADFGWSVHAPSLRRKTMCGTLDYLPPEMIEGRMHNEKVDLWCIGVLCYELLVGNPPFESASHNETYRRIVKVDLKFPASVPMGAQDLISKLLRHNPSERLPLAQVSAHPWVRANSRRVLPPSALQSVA

SMILES | % of cells 2<n<4 ([1]; 20µM) [%] | % of cells 2n ([1]; 20µM) [%] | % of cells 4n ([1]; 20µM) [%] | % of cells <2n ([1]; 20µM) [%] | % of cells >4n ([1]; 20µM) [%] | % of cells 2<n<4 ([1]; 40µM) [%] | % of cells 2n ([1]; 40µM) [%] | % of cells 4n ([1]; 40µM) [%] | % of cells <2n ([1]; 40µM) [%] | % of cells >4n ([1]; 40µM) [%] | % of cells 2<n<4 ([1]; 100µM) [%] | % of cells 2n ([1]; 100µM) [%] | % of cells 4n ([1]; 100µM) [%] | % of cells <2n ([1]; 100µM) [%] | % of cells >4n ([1]; 100µM) [%] | effect on DNA content / distribution of cells in the cell cycle stages [1] | IC50 [2] [µM] | IC50 [3] [µM]
CC(C)Nc1nc(-c2ccco2)nc2ccc(/C=C/C(C)(C)O)cc12 [Compound (A), (E)-4-(2-(Furan-2-yl)-4-(isopropylamino)quinazolin-6-yl)-2-methylbut-3-en-2-ol] | 17.6 | 58.5 | 19.2 | 4.4 | 0.7 | 17.7 | 58.5 | 19.9 | 3.8 | 3.8 | 15.5 | 48.4 | 20.8 | 13.8 | 2.1 | did not alter the distribution of cells in the different cell cycle stages | > 100 | 16.2
CC(C)Nc1nc(-c2ccco2)nc2ccc(C#CCO)cc12 [Compound (C), 3-(2-(Furan-2-yl)-4-(isoiproipylamino)quinazolin-6-yl)prop-2-yn-l-ol] | 17.5 | 55.2 | 19.0 | 7.6 | 1.3 | 20.0 | 47.2 | 21.2 | 10.5 | 1.8 | 25.2 | 21.4 | 41.8 | 10.0 | 1.5 | increased amount of 4n DNA; also recorded: dose dependent increase in the proportion of cells with more than 2n DNA content | > 100 | 3380
